Measured values as given in PubChem BioAssay AID248 (DTP/NCI, 2004).
Where “and” joins values, the source holds several entries; their conditions need not be identical. Equal entries are not always repeated. Toxic doses and inconclusive results are not listed. No stated cut-off is given here; in the data, active means T/C of 150% or more; inactive means T/C below 125%.

Tested on: L1210 leukemia ip in BDF1 mice, survival T/C
Experiment: NCI In Vivo Anticancer Drug Screen. Data for tumor model L1210 Leukemia (intraperitoneal) in B6D2F1 (BDF1) mice
Conditions: endpoint: mean survival time, higher = longer survival
Method in brief: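 Each compound was tested against a transplantable tumor grown in mice. The endpoint was survival, with treated animals benchmarked against vehicle controls as a simple ratio.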

[1] = dose: 25.0 mg/kg/injection, schedule: Q01DX009 (ip), vehicle: saline with Tween-80
[2] = dose: 100.0 mg/kg/injection, schedule: Q04DX003 (ip), vehicle: Klucel (hydroxypropylcellulose) (HPC)
[3] = dose: 200.0 mg/kg/injection, schedule: Q04DX003 (ip), vehicle: Klucel (hydroxypropylcellulose) (HPC)

Measured: T/C

O=C(C=C(C(F)(F)F)C(F)(F)F)c1ccc(Cl)c2ccccc12
inactive: dose: 12.5 mg/kg/injection, schedule: Q01DX009 (ip), vehicle: saline with Tween-80 94 % of control | [1] 92 % of control | dose: 25.0 mg/kg/injection, schedule: Q04DX003 (ip), vehicle: saline with Tween-80 107 % of control | dose: 50.0 mg/kg/injection, schedule: Q04DX003 (ip), vehicle: saline with Tween-80 90 % of control

O=C(N/N=C/c1ccc(Cl)cc1Cl)c1ccccc1
inactive: [2] 101 % of control | [3] 95 % of control

Cc1c(Cl)cccc1NC(=O)c1ccc(Cl)c(Cl)c1
inactive: dose: 100.0 mg/kg/injection, schedule: Q01DX009 (ip), vehicle: gum acacia 88 % of control | [2] 103 % of control | dose: 200.0 mg/kg/injection, schedule: Q01DX009 (ip), vehicle: gum acacia 88 % of control | [3] 90 % of control | dose: 400.0 mg/kg/injection, schedule: Q01DX009 (ip), vehicle: gum acacia 91 % of control | dose: 400.0 mg/kg/injection, schedule: Q04DX003 (ip), vehicle: Klucel (hydroxypropylcellulose) (HPC) 95 % of control

CCOc1ccc(NC(=S)NC(=O)c2ccccc2F)cc1
inactive: [1] 92 % of control | dose: 50.0 mg/kg/injection, schedule: Q01DX009 (ip), vehicle: saline with Tween-80 104 % of control | dose: 100.0 mg/kg/injection, schedule: Q01DX009 (ip), vehicle: saline with Tween-80 87 % of control | dose: 200.0 mg/kg/injection, schedule: Q01DX009 (ip), vehicle: saline with Tween-80 87 % of control

CCCCCCCCCCCCNC(=O)c1ccc[n+](C)c1
inactive: dose: 6.25 mg/kg/injection, schedule: Q01DX009 (ip), vehicle: acetone 95 % of control | dose: 6.25 mg/kg/injection, schedule: Q04DX003 (ip), vehicle: saline 91 % of control | dose: 12.5 mg/kg/injection, schedule: Q01DX001 (ip), vehicle: saline 105 % of control | dose: 12.5 mg/kg/injection, schedule: Q01DX009 (ip), vehicle: acetone 98 % of control | dose: 12.5 mg/kg/injection, schedule: Q04DX003 (ip), vehicle: saline 92 % of control and 103 % of control | dose: 25.0 mg/kg/injection, schedule: Q01DX001 (ip), vehicle: saline 104 % of control | dose: 25.0 mg/kg/injection, schedule: Q01DX009 (ip), vehicle: acetone 95 % of control | dose: 25.0 mg/kg/injection, schedule: Q04DX003 (ip), vehicle: saline 94 % of control and 91 % of control | dose: 50.0 mg/kg/injection, schedule: Q04DX003 (ip), vehicle: saline 96 % of control

C=CCOc1ccnc(-c2ccccc2)n1
inactive: dose: 100.0 mg/kg/injection, schedule: Q01DX001 (ip), vehicle: Klucel (hydroxypropylcellulose) (HPC) 92 % of control | dose: 200.0 mg/kg/injection, schedule: Q01DX001 (ip), vehicle: Klucel (hydroxypropylcellulose) (HPC) 95 % of control | dose: 400.0 mg/kg/injection, schedule: Q01DX001 (ip), vehicle: Klucel (hydroxypropylcellulose) (HPC) 98 % of control

CC(C)=CCC(=O)OC(Cc1ccccc1)(c1ccccc1)C(C)CN(C)C (stereo not given)
inactive: dose: 25.0 mg/kg/injection, schedule: Q01DX009 (ip), vehicle: saline 101 % of control | dose: 50.0 mg/kg/injection, schedule: Q01DX009 (ip), vehicle: saline 98 % of control | dose: 100.0 mg/kg/injection, schedule: Q01DX009 (ip), vehicle: saline 98 % of control

CCCCSc1ncc(C)c(NC)n1
inactive: dose: 25.0 mg/kg/injection, schedule: Q01DX Z (ip), vehicle: methylcellulose (MC) 92 % of control | dose: 50.0 mg/kg/injection, schedule: Q01DX Z (ip), vehicle: methylcellulose (MC) 95 % of control

O=c1[nH]c(=S)[nH]c2nccnc12
inactive: dose: 16.0 mg/kg/injection, schedule: Q01DX Z (ip), vehicle: methylcellulose (MC) 108 % of control | dose: 31.0 mg/kg/injection, schedule: Q01DX Z (ip), vehicle: methylcellulose (MC) 103 % of control | dose: 62.0 mg/kg/injection, schedule: Q01DX Z (ip), vehicle: methylcellulose (MC) 105 % of control | dose: 125.0 mg/kg/injection, schedule: Q01DX Z (ip), vehicle: methylcellulose (MC) 97 % of control and 106 % of control | dose: 250.0 mg/kg/injection, schedule: Q01DX Z (ip), vehicle: methylcellulose (MC) 97 % of control | dose: 500.0 mg/kg/injection, schedule: Q01DX Z (ip), vehicle: methylcellulose (MC) 106 % of control

CC1(C(=O)O)CCCC1C(CCC(=O)O)C(=O)O (stereo not given)
inactive: dose: 100.0 mg/kg/injection, schedule: Q01DX001 (ip), vehicle: saline 97 % of control | dose: 200.0 mg/kg/injection, schedule: Q01DX001 (ip), vehicle: saline 95 % of control | dose: 400.0 mg/kg/injection, schedule: Q01DX001 (ip), vehicle: saline 92 % of control

O=c1scc(-c2ccc(-c3ccccc3)cc2)s1
inactive: dose: 100.0 mg/kg/injection, schedule: Q04DX002 (ip), vehicle: Klucel (hydroxypropylcellulose) (HPC) 109 % of control | dose: 200.0 mg/kg/injection, schedule: Q04DX002 (ip), vehicle: Klucel (hydroxypropylcellulose) (HPC) 95 % of control | dose: 400.0 mg/kg/injection, schedule: Q04DX002 (ip), vehicle: Klucel (hydroxypropylcellulose) (HPC) 109 % of control
